Data reported in article PMC7906020, “Trp-Containing Antibacterial Peptides Impair Quorum Sensing and Biofilm Development in Multidrug-Resistant Pseudomonas aeruginosa and Exhibit Synergistic Effects With Antibiotics” (Frontiers in Microbiology, 2021).
Values after ≈ are worked out from the molar mass of the structure shown. Values joined by “and” are separate entries in the source; they are usually repeats but may differ in a detail not shown here. Equal values may be shown once. Read-outs that look alike come from different tables or passages of the source. Peptide text beside a SMILES is read from it.

Columns and labels:
[1] = test system: MRPA0108 strain; assay: MIC of antibiotics alone and in combination with 1/4 × MIC peptide; format: cell-based, Pseudomonas aeruginosa; details: for fold reduction of MIC of the antibiotic: antibiotic in combination with Trp-containing peptides at 1/4 × MIC, range over the peptides
Experimental: FIGURE 6 Antibacterial activity of antibiotics in combination with the Trp-containing peptides. Bacterial cultures were treated with a series of concentration of antibiotics ceftazidime (A), piperacillin (B), and levofloxacin (C) in the absence (control) and presence of a 1/4 × MIC peptide concentration at 37C overnight. The OD600 was recorded using a microtiter plate reader. The MIC was defined as the lowest antibiotics concentration that inhibited 95% of the bacterial growth. Phenylalanyl arginyl β-naphthylamide (PAβN), a broad-spectrum inhibitor for efflux pump, was used as a positive control. Each data point represents an average of six independent experiments. *P < 0.05 and **P < 0.01 indicate statistically significant differences between antibiotics alone and antibiotics in combination with peptide.

[2] = test system: β-lactamase activity in MRPA0108 cells; assay: β-Lactamase activity assay (nitrocefin kit) in treated cells; format: cell-based, Pseudomonas aeruginosa; details: MRPA0108 cells treated with antibiotic alone, compared to control
Experimental: β-lactamase activity was measured by using a β-lactamase assay kit (YIASEN Biotech Co., Ltd., Shanghai, China) according to the manufacturer’s instructions. Briefly, mid-log growth-phase bacteria were diluted to 1 × 10^8 CFU/ml and treated with I1W or L12W at concentrations ranging from 3.13 to 50 μM for 12 h at 37°C. After induction, the cultures were harvested by centrifugation at 5,000 rpm at 4°C, washed three times with PBS buffer (pH 7.2), and then resuspended in the same buffer. The cells were sonicated on ice for 15 min, and the cell lysates containing β-lactamase were collected by centrifugation at 12,000 rpm for 30 min at 4°C. Fifty microliters of the prepared β-lactamase-containing lysates was mixed with 50 μl of assay buffer containing nitrocefin and reacted at room temperature in a dark environment for 20 min. Nitrocefin hydrolysis was measured spectrophotometrically at 490 nm. Concurrently, the total protein content was determined with a Bradford assay using the same supernatant. One milliunit of β-lactamase is defined as 1 nanomole of nitrocefin hydrolyzed per minute per microgram of protein.

[3] = test system: MRPA0108 strain; details: previous study, ref Han et al., 2020; cited from earlier work
Text: Supplement Table_1.docx, table 1: Table S1 Biological characteristics and antibacterial activities of the Trp-containing antimicrobial peptides (32) | column: MIC(μM)

[4] = test system: rhamnolipid production in MRPA0108; assay: Rhamnolipid production, orcinol method; format: cell-based, Pseudomonas aeruginosa; details: peptide at 1/4 × MIC, 24 h, absorbance 420 nm, vs control, triplicate
Experimental: (§1) The culture supernatant was obtained after centrifugation at 12,000×g for 10 min. (1) LasB elastase activity was measured using elastin-Congo red (ECR) as the substrate, as described by [Pattnaik et al. (2018)]. Briefly, 100 μl of the culture supernatant was added to 900 μl of ECR buffer (100 mM Tris-HCl, 1 mM CaCl2, pH 7.5) containing 10 mg of ECR and then incubated with shaking at 37°C for 18 h. Then, 100 μl of 0.12 M EDTA was added to stop the reaction. The insoluble ECR was removed by centrifugation, and the supernatant absorbance was measured at 495 nm. The optical density (OD) 495 nm/OD 600 nm represents the elastase activity. (2) LasA protease activity was measured as follows ([Pattnaik et al., 2018]): first, the culture supernatant was filtered to remove the bacterial cells, and then 150 μl of sterile-filtered supernatant was added to 2% azocasein (prepared in 50 mM Tris-HCl) and incubated for 4 h at 37°C. Trichloroacetic acid (TCA, 10%) was added to precipitate the undigested substrate. After centrifugation at 10,000 rpm for 10 min, 1 M NaOH was added to the supernatant, and the relative protease activity was measured at OD 440 nm. (3) The pyocyanin assay was based on the absorbance of excreted pyocyanin at 520 nm in an acidic solution ([Kong et al., 2005]). Three milliliters of culture supernatant were mixed with 2 ml of chloroform for 20 min, and then the pyocyanin from the chloroform phase was reextracted using 0.2 M HCl for 15 min to obtain a pink-colored pyocyanin solution. The OD 520 nm was measured to evaluate the change in pyocyanin content. (4) Rhamnolipid detection was carried out as previously described ([Wittgens et al., 2011]). Briefly, 500 μl of culture supernatant was mixed with 500 μl of ethyl acetate and vortexed vigorously for 15 s to extract rhamnolipid. After centrifugation at 10,000×g for 5 min at 4°C, the organic phase containing rhamnolipids was obtained and evaporated at room temperature overnight. The rhamnolipid extract dissolved in ultrapure water was mixed with orcinol reagent (0.19% orcinol in 53% H2SO4) and incubated at 80°C for 30 min. The absorbance was measured at 420 nm. (5) The level of C4-HSL was quantified by GC-MS as previously described ([Guo et al., 2012]).

[5] = test system: MRPA0108; assay: Checkerboard assay (FICI) of peptides with antibiotics; format: cell-based, Pseudomonas aeruginosa; details: MRPA0108, 24 h 37°C, median of at least three experiments, synergy ≤ 0.5, additive 0.5-1, indifference 1-2
Experimental: The synergistic effect of peptides and antibiotics was evaluated using the checkerboard method, in which the fractional inhibitory concentration index (FICI) was used to analyze the type of interaction between compounds ([Berditsch et al., 2015]). A 100 μl inoculum of 10^5 CFU/ml planktonic bacteria was added to the respective wells of 96-well microtiter plates, and then serial dilutions of peptide and antibiotic at 100 μl volumes were added to each well and incubated at 37°C for 24 h. The OD 600 nm value was measured with a microplate plate reader (Varioskan Flash Microplate Reader, Thermo Fisher Scientific Co., Beijing) as an indicator of growth inhibition. The resulting checkerboard contained each combination of peptide and antibiotic in 9 doubly increasing concentrations, with wells containing the highest concentration of each antibiotic at opposite corners. The concentrations tested for every combination of peptide-antibiotic were their respective MICs. MH medium and the peptide/antibiotic combination served as negative and positive controls, respectively. The FICI is calculated as FICa plus FICb, where FICa is the MIC of the peptide in the presence of antibiotics/the MIC of the peptide alone, and FICb is the MIC of the antibiotic in the presence of peptide/the MIC of the antibiotic alone. Drug interactions were defined as follows: synergy, FICI ≤ 0.5; additive effect, 0.5 < FICI ≤ 1; and indifference, 1 < FICI ≤ 2 ([Hollander et al., 1998]; [Yoon et al., 2004]). The results were recorded in at least three independent experiments, and the median FICI values were used in the analysis.

[6] = cited from earlier work
Text: Supplement Table_1.docx, table 1: Table S1 Biological characteristics and antibacterial activities of the Trp-containing antimicrobial peptides (32) | column: Hemolysis (μM)

[7] = test system: alginate production in MRPA0108; assay: Alginate determination, H2SO4-carbazole method; format: cell-based, Pseudomonas aeruginosa; details: OD 530 nm
Experimental: (§2) Exopolysaccharides were determined using the phenol-H2SO4 method. Briefly, after incubation, the cultures were centrifuged at 10,000 rpm for 15 min, and the pellets were resuspended in high-salt buffer (10 mM KPO4, 5 mM NaCl, 2.5 mM MgSO4, pH 7.0), followed by recentrifugation at 10,000 rpm for 30 min. The resulting supernatant was mixed with three volumes of chilled ethanol (100%) and incubated overnight at 4°C. The precipitated exopolysaccharide was added to a mixture containing cold phenol and H2SO4, and the absorbance of the solution was measured at 490 nm. Alginate content was determined using the H2SO4-carbazole method. Briefly, after incubation, the precooled cultures were mixed with an H2SO4 solution (4:1) and vortexed in ice water, and then 0.2% carbazole dissolved in ethanol was added. The mixture was revortexed and incubated at 55°C for 30 min, and the OD 530 nm was measured.

[8] = test system: LasB elastase of MRPA0108; assay: LasB elastase activity, elastin-Congo red method; format: cell-based, Pseudomonas aeruginosa; details: peptide at 1/4 × MIC, 24 h, 37°C; ECR substrate, OD495/OD600; vs control; triplicate
Experimental: as §1, with “The rhamnolipid extract dissolved in ultrapure water was mixed with orcinol reagent (0.19% orcinol in 53% H2SO4) and incubated at 80°C for 30 min.” left out

[9] = test system: exopolysaccharide production in MRPA0108; assay: Exopolysaccharide determination, phenol-H2SO4 method; format: cell-based, Pseudomonas aeruginosa; details: phenol-H2SO4, 490 nm
Experimental: as §2

[10] = test system: MRPA0108 biofilms; assay: Confocal laser scanning microscopy of biofilms (LIVE/DEAD staining); format: cell-based, Pseudomonas aeruginosa; details: 24 h; for average biofilm thickness: after treatment with low concentrations of peptide (1 × MIC or 2 × MIC), 37°C, control biofilm 6 μm; for percentage of dead/live cells in biofilm: SYTO9/PI, control 8.7%
Experimental: Biofilms of MRPA0108 were visualized by confocal microscopy. Mid-log growth-phase bacteria were diluted to 1 × 10^7 CFU/ml. […] LB liquid medium and erythromycin were used as negative and positive controls, respectively. After incubation, the supernatant was removed, and the slides were washed and stained in a dark environment for 30 min using a LIVE/DEAD BacLight^TM Bacterial Viability Kit (Invitrogen, Life Technologies, Shanghai, China). The slides were washed three times and imaged with a confocal laser scanning microscope (LSM 710, Carl Zeiss, Germany) with excitation/emission wavelengths of 480/500 and 490/635 nm for SYTO9 and propidium iodide (PI), respectively. SYTO9 was used to indicate live bacteria, and PI was used to mark dead bacteria.

[11] = test system: pyocyanin production in MRPA0108; assay: Pyocyanin production assay; format: cell-based, Pseudomonas aeruginosa; details: peptide at 1/4 × MIC, 24 h; OD 520 nm; vs untreated control; triplicate
Experimental: The culture supernatant was obtained after centrifugation at 12,000×g for 10 min. (1) LasB elastase activity was measured using elastin-Congo red (ECR) as the substrate, as described by [Pattnaik et al. (2018)]. Briefly, 100 μl of the culture supernatant was added to 900 μl of ECR buffer (100 mM Tris-HCl, 1 mM CaCl2, pH 7.5) containing 10 mg of ECR and then incubated with shaking at 37°C for 18 h. Then, 100 μl of 0.12 M EDTA was added to stop the reaction. The insoluble ECR was removed by centrifugation, and the supernatant absorbance was measured at 495 nm. The optical density (OD) 495 nm/OD 600 nm represents the elastase activity. (2) LasA protease activity was measured as follows ([Pattnaik et al., 2018]): first, the culture supernatant was filtered to remove the bacterial cells, and then 150 μl of sterile-filtered supernatant was added to 2% azocasein (prepared in 50 mM Tris-HCl) and incubated for 4 h at 37°C. […] After centrifugation at 10,000 rpm for 10 min, 1 M NaOH was added to the supernatant, and the relative protease activity was measured at OD 440 nm. (3) The pyocyanin assay was based on the absorbance of excreted pyocyanin at 520 nm in an acidic solution ([Kong et al., 2005]). […] The OD 520 nm was measured to evaluate the change in pyocyanin content. […] The absorbance was measured at 420 nm. (5) The level of C4-HSL was quantified by GC-MS as previously described ([Guo et al., 2012]).

[12] = lowest concentration inhibiting 95% of growth, overnight 37°C, six experiments

Compound	fold reduction of MIC of the antibiotic [1]	MIC [3] [µM]	inhibition of rhamnolipid production [4] [%]	FICI in combination with ceftazidime [5]	FICI in combination with piperacillin [5]	Hemolysis [6] [µM]	FICI in combination with levofloxacin [5]	further results
CCN1CCN(C(=O)N[C@@H](C(=O)N[C@@H]2C(=O)N3[C@@H]2SC(C)(C)[C@@H]3C(=O)O)c2ccccc2)C(=O)C1=O [piperacillin, reference compound]	2–11 fold	–	–	–	–	–	–	increase of β-lactamase activity [2]: 1.8 fold
IKKILSKIKKWLK-NH2 [L11W]	–	25	24.3	0.25	0.28–0.49 and 0.34	–	–	Hemolysis ([6]; as previously reported, ref Bi et al., 2013): > 500 µM
CC[C@H](C)[C@H](N)C(=O)N[C@@H](CCCCN)C(=O)N[C@@H](CCCCN)C(=O)N[C@@H](Cc1c[nH]c2ccccc12)C(=O)N[C@@H](CC(C)C)C(=O)N[C@@H](CO)C(=O)N[C@@H](CCCCN)C(=O)N[C@H](C(=O)N[C@@H](CCCCN)C(=O)N[C@@H](CCCCN)C(=O)N[C@@H](CC(C)C)C(=O)N[C@@H](CC(C)C)C(=O)N[C@@H](CCCCN)C(N)=O)[C@@H](C)CC [I4W] (H-IKKWLSKIKKLLK-NH2; N-terminus and C-terminus assumed)	–	6.25 (≈ 10.2 µg/mL)	43.9	–	–	> 500	–	inhibition of alginate production ([7]; peptide at 1/4 × MIC): 47%; inhibition of alginate production ([7]; peptide at 1 × MIC): 68%; decrease of LasB elastase activity [8]: 22.3%; reduction of exopolysaccharide production ([9]; peptide at 1/4 × MIC, overnight 37°C): 25.0%; reduction of exopolysaccharide production ([9]; peptide at 1 × MIC): 65.2%; reduction of exopolysaccharide production ([9]; peptide concentration increased onefold from 1/4 × MIC): 42.4%; average biofilm thickness [10]: 1.5–2.5 μm; percentage of dead/live cells in biofilm ([10]; peptide at 1 × MIC): 31.2%; percentage of dead/live cells in biofilm ([10]; peptide at 2 × MIC): 41.7%
IKKWWSKIKKLLK-NH2 [I4WL5W]	–	12.5	37.5	0.43	0.68	> 500	1.12	–
WKKIWSKIKKLLK-NH2 [I1WL5W]	–	12.5	38.8	0.37	0.59	> 500	0.75	–
C[C@H]1COc2c(N3CCN(C)CC3)c(F)cc3c(=O)c(C(=O)O)cn1c23 [levofloxacin]	0–4 fold	–	–	–	–	–	–	–
CC(C)(O/N=C(\C(=O)N[C@@H]1C(=O)N2C(C(=O)[O-])=C(C[n+]3ccccc3)CS[C@H]12)c1csc(N)n1)C(=O)O [ceftazidime]	8–32 fold	–	–	–	–	–	–	MIC of antibiotic alone [1, 12]: 30 µM; MIC of antibiotic in combination with 1/4 × MIC L12W [1, 12]: 0.94 µM; increase of β-lactamase activity [2]: fourfold
IKKIWSKIKKLLK-NH2 [L5W]	–	12.5	40.7	0.23	0.37	> 500	0.62	decrease of LasB elastase activity [8]: 24.1%; reduction of pyocyanin production [11]: 69.4%; average biofilm thickness [10]: 1.5–2.5 μm; percentage of dead/live cells in biofilm ([10]; peptide at 1 × MIC): 21.4%; percentage of dead/live cells in biofilm ([10]; peptide at 2 × MIC): 32.5%
